As a reminder, the Kd is the constant that tells how readily two partners part at equilibrium. Read a high Kd as a looser complex.

Kd data for three molecules are collected here from ChEMBL document CHEMBL1144455, “A small molecule-kinase interaction map for clinical kinase inhibitors” (Nat Biotechnol, 2005).

Assay [1] has as its target Tyrosine-protein kinase Lyn (Homo sapiens, UniProt P07948).
Assay [2] addresses Protein-tyrosine kinase 6 (Homo sapiens, UniProt Q13882).
The target of assay [3] is BMP-2-inducible protein kinase (Homo sapiens, UniProt Q9NSY1).
In assay [4] the target is T1, Serine/threonine-protein kinase 4 (Homo sapiens, UniProt Q13043).
T1 sequence (Q13043 whole entry): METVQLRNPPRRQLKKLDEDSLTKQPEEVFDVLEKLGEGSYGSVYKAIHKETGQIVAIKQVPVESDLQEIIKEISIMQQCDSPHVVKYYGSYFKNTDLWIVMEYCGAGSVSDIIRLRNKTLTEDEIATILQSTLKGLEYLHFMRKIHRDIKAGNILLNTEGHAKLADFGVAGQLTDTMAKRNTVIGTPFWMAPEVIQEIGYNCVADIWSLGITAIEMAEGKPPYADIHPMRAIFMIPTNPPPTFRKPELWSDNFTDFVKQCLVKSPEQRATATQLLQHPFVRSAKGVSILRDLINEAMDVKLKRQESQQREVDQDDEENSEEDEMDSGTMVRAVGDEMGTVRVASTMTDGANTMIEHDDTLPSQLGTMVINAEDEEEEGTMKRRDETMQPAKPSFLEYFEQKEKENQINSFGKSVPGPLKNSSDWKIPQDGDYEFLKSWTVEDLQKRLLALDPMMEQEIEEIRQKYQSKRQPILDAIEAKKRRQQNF

The target in the next assay is T2, Ephrin type-A receptor 3 (Homo sapiens, UniProt P29320).
T2 sequence (P29320 whole entry): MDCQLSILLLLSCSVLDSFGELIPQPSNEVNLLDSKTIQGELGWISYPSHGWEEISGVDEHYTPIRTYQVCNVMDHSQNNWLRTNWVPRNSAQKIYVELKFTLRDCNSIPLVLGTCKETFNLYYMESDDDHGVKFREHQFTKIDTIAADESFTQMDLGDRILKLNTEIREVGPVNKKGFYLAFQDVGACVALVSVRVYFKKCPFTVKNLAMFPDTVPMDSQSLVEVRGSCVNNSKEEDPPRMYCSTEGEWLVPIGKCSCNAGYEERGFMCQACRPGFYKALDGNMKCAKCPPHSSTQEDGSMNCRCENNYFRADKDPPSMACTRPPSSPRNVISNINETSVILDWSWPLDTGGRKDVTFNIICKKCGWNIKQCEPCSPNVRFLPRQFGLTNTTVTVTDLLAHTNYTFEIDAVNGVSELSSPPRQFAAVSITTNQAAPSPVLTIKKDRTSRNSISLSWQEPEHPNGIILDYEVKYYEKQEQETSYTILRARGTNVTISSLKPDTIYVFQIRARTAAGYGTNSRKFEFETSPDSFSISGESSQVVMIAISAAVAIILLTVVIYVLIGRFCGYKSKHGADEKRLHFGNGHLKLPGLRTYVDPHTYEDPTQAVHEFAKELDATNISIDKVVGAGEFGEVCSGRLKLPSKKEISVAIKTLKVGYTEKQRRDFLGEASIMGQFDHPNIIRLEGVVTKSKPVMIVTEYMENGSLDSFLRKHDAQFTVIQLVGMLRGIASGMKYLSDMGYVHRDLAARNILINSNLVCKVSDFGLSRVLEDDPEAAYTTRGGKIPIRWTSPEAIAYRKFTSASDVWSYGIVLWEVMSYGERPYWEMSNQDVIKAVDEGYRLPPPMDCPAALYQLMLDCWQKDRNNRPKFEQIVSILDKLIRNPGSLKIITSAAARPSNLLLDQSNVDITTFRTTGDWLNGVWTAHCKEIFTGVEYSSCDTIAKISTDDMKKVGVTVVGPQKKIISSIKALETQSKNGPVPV

Assay [5] concerns the target Cyclin-dependent kinase 2 (Homo sapiens, UniProt P24941).

Chain of Protein-tyrosine kinase 6 (Q13882 whole entry): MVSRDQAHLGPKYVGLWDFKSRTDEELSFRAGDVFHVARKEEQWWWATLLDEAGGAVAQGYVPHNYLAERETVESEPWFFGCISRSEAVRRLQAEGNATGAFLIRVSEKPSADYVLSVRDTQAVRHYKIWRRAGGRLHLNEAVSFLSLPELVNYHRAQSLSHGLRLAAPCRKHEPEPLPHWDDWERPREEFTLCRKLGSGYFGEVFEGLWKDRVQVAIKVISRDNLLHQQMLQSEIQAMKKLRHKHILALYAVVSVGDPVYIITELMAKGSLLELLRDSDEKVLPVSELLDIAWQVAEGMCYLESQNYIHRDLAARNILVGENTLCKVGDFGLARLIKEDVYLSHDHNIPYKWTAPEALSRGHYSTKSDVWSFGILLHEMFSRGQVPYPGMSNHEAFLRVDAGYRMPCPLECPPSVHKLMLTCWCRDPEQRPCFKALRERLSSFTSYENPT
Chain of Tyrosine-protein kinase Lyn (P07948 whole entry): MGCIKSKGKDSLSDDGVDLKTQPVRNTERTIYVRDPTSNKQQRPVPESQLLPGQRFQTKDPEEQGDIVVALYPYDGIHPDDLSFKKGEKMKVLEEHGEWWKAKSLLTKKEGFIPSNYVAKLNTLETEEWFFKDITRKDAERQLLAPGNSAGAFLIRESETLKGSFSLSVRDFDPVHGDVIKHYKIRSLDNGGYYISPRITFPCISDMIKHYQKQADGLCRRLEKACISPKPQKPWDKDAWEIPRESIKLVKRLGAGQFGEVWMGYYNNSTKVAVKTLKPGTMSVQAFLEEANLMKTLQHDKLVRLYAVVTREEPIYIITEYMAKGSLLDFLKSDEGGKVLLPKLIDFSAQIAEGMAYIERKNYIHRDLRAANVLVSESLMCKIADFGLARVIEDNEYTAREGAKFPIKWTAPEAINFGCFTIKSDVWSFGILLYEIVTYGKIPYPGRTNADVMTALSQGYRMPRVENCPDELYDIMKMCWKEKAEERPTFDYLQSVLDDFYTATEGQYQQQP
Chain of BMP-2-inducible protein kinase (Q9NSY1 whole entry): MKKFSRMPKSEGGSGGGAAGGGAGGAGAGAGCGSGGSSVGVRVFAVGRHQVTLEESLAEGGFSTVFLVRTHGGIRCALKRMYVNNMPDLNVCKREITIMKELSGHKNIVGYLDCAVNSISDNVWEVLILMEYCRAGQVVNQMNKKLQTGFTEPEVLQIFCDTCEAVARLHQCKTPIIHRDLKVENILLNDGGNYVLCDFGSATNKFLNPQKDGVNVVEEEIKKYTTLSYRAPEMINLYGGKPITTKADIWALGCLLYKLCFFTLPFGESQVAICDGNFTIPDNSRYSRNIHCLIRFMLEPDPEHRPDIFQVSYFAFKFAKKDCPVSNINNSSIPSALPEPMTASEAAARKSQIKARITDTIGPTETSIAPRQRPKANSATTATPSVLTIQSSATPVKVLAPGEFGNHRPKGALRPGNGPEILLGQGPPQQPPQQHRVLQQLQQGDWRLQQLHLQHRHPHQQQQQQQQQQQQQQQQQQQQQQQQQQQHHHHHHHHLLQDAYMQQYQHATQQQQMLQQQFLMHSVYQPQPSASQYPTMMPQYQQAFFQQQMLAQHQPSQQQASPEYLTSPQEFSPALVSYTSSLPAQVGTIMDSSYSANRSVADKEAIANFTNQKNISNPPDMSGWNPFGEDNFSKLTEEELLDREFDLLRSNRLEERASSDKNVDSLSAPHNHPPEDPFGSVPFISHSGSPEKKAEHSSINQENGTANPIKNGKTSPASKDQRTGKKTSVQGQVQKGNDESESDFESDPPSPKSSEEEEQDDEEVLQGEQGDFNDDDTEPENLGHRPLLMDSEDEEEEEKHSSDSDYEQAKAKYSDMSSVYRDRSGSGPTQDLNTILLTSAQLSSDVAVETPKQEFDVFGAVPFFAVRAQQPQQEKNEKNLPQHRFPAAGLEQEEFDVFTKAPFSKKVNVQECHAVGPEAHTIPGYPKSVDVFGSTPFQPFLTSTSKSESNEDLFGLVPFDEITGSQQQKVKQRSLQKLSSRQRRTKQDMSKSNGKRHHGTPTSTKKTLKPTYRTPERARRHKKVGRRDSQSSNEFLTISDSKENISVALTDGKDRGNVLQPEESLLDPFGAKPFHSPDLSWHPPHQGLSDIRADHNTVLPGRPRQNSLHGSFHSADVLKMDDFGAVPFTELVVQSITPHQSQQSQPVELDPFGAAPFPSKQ

With `CCOc1cc2ncc(C#N)c(Nc3ccc(F)c(Cl)c3)c2cc1NC(=O)/C=C/CN(C)C` [PELITINIB], the Kd in assay [1] worked out at 0.96 µM.

With `Oc1ccc(-c2nc(-c3ccc(F)cc3)c(-c3ccncc3)[nH]2)cc1` [SB-202190], binding in assay [2] was characterised by a dissociation constant (Kd) of 3 µM.

On to `Oc1c2ccccc2c2c3c(cccc13)N=N2` [SP-600125], for which the Kd in assay [3] turned out to be 0.025 µM; in assay [4], 2.2 µM; at Ephrin type-A receptor 3 it was 4 µM; in assay [5] it was 3.2 µM.
